Values quoted from earlier work in paper PMC9851200, “Multiparameter phenotypic screening for endogenous TFEB and TFE3 translocation identifies novel chemical series modulating lysosome function” (Autophagy, 2022).

Columns and labels:
Set-up in all cases: method as in original PKIS2 published data
[1] = target: T1, kinases (KINOMEscan panel) (Homo sapiens, UniProt Q6ZWH5); details: Published KINOMEscan; ref original PKIS2 published data; cited from earlier work
T1 sequence (Q6ZWH5 1-1172): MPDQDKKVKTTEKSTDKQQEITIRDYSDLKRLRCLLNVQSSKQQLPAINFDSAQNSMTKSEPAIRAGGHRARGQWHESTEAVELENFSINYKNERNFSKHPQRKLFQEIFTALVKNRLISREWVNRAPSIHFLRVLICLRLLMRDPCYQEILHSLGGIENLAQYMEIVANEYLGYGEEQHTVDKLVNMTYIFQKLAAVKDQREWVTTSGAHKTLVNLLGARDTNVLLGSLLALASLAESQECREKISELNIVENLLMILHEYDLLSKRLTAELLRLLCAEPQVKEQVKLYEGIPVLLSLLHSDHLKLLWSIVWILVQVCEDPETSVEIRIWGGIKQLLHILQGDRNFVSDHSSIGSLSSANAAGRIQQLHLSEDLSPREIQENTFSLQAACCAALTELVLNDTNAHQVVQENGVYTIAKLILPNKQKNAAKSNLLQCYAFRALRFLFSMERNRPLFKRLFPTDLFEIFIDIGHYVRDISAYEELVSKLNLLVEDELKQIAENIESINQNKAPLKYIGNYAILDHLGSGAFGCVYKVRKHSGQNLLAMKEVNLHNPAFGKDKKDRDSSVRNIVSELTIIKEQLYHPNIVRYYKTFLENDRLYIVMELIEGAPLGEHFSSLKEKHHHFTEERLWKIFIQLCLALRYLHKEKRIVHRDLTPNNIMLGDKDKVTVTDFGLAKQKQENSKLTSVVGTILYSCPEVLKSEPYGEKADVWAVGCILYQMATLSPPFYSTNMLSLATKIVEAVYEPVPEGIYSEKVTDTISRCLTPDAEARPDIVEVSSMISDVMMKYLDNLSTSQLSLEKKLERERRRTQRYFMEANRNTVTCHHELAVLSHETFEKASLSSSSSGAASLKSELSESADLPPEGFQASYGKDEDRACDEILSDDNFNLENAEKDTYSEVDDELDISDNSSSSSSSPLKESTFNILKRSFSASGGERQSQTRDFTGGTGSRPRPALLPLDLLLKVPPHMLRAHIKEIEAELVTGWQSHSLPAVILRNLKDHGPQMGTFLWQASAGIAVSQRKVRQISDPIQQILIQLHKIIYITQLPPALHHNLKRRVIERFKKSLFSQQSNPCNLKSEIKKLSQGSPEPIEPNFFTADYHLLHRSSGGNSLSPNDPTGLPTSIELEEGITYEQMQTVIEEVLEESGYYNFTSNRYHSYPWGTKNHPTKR

[2] = target: kinases (KINOMEscan panel) (Homo sapiens, UniProt P21802); details: kinase FGFR2; Published KINOMEscan; ref original PKIS2 published data; cited from earlier work
[3] = target: kinases (KINOMEscan panel) (Homo sapiens, UniProt Q9BX84); details: TRPM6; Published KINOMEscan; ref original PKIS2 published data; cited from earlier work
[4] = target: kinases (KINOMEscan panel) (Homo sapiens, UniProt P49137); details: kinase MAPKAPK2; Published KINOMEscan; ref original PKIS2 published data; cited from earlier work
[5] = target: kinases (KINOMEscan panel) (Homo sapiens, UniProt O95747); details: Published KINOMEscan; ref original PKIS2 published data; cited from earlier work
[6] = target: T2, kinases (KINOMEscan panel) (Homo sapiens, UniProt P57058); details: kinase HUNK; Published KINOMEscan; ref original PKIS2 published data; cited from earlier work
T2 sequence (P57058 1-714): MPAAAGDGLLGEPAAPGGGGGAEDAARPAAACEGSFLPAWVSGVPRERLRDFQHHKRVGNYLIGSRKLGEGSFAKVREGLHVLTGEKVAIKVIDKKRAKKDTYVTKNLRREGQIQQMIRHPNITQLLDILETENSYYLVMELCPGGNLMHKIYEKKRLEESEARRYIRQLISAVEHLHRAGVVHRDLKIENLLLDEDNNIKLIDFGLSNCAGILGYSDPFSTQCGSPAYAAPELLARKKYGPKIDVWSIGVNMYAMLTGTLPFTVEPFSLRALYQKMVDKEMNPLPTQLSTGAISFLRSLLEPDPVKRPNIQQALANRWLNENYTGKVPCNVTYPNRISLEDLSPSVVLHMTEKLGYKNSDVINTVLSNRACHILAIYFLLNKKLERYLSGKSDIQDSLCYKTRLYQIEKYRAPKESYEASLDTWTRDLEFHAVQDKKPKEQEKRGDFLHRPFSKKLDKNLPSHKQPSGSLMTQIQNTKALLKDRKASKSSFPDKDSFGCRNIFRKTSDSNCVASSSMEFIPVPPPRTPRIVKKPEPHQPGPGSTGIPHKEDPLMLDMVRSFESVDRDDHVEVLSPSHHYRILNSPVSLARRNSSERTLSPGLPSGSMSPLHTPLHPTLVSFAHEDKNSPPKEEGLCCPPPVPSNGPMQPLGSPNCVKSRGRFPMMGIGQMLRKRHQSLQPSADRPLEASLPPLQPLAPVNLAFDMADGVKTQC

[7] = target: T3, kinases (KINOMEscan panel) (Homo sapiens, UniProt Q9UQB9); details: AURKC; Published KINOMEscan; ref original PKIS2 published data; cited from earlier work
T3 sequence (Q9UQB9 1-309): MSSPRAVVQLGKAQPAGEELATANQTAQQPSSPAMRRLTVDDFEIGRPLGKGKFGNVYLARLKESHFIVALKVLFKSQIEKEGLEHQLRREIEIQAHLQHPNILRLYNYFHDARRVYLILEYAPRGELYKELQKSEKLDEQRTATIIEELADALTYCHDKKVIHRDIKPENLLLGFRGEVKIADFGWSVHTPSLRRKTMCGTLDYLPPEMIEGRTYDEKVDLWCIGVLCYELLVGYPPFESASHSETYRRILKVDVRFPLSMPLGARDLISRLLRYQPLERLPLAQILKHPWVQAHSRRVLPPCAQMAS

[8] = target: kinases (KINOMEscan panel) (Homo sapiens, UniProt P19784); details: CSNK2A2; Published KINOMEscan; ref original PKIS2 published data; cited from earlier work
Chain of kinases (KINOMEscan panel) (Homo sapiens, UniProt P19784) (P19784 whole entry): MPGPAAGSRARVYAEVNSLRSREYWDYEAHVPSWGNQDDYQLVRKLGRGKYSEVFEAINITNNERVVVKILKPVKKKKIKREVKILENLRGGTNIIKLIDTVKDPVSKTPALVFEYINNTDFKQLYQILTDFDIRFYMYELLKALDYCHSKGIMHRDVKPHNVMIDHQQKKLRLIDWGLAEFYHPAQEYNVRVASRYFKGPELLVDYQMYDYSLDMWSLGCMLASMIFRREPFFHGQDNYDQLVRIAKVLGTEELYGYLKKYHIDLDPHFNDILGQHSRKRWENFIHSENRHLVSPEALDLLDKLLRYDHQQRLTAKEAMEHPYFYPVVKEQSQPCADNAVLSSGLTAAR

Chain of kinases (KINOMEscan panel) (Homo sapiens, UniProt P49137) (P49137 whole entry): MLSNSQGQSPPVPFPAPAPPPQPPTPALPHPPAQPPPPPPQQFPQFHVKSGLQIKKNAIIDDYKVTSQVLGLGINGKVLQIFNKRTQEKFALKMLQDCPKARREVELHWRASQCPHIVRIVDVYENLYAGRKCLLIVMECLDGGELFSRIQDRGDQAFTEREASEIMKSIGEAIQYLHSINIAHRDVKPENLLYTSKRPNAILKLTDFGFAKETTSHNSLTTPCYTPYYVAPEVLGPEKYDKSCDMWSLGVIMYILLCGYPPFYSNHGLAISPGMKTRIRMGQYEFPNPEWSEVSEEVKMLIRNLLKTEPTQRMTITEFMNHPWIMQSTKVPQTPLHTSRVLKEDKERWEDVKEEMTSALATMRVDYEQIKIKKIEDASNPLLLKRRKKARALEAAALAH
Chain of kinases (KINOMEscan panel) (Homo sapiens, UniProt P21802) (P21802 22-821): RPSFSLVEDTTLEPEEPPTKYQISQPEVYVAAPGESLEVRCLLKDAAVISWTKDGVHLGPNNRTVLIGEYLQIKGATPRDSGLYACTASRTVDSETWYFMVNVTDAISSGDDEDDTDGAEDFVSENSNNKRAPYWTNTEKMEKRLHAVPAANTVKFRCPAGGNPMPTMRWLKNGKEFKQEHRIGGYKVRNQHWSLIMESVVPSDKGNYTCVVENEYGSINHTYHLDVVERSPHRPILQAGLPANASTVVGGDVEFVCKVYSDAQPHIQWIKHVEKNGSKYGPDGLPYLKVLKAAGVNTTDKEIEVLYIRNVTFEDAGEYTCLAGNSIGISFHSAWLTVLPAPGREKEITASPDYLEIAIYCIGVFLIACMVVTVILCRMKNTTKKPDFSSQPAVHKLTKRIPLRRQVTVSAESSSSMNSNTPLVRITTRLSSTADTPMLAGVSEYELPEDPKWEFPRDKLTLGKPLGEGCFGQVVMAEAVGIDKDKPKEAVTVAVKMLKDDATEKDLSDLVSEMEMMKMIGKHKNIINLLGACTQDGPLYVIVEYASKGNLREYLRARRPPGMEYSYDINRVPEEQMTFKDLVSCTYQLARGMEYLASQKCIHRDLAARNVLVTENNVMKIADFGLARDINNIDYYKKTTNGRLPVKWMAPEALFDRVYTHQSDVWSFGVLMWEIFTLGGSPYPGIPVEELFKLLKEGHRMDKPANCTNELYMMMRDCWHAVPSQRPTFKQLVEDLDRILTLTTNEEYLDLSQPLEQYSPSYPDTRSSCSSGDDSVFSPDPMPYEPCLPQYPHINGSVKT
Chain of kinases (KINOMEscan panel) (Homo sapiens, UniProt O95747) (O95747 whole entry): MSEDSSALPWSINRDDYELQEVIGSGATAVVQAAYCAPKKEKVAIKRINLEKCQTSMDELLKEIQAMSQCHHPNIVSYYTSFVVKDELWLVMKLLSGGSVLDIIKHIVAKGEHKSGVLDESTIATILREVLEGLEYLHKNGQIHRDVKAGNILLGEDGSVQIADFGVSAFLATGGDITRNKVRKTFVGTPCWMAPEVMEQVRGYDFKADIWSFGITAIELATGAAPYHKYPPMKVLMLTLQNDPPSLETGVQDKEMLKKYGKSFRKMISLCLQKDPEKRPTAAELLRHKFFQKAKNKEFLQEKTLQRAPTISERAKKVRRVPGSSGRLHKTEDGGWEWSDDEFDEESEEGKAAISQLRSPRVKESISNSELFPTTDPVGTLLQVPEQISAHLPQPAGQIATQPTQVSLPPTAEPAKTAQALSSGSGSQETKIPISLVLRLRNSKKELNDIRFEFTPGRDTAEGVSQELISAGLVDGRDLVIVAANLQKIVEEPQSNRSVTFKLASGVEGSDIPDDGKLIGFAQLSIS
Chain of kinases (KINOMEscan panel) (Homo sapiens, UniProt Q9BX84) (Q9BX84 whole entry): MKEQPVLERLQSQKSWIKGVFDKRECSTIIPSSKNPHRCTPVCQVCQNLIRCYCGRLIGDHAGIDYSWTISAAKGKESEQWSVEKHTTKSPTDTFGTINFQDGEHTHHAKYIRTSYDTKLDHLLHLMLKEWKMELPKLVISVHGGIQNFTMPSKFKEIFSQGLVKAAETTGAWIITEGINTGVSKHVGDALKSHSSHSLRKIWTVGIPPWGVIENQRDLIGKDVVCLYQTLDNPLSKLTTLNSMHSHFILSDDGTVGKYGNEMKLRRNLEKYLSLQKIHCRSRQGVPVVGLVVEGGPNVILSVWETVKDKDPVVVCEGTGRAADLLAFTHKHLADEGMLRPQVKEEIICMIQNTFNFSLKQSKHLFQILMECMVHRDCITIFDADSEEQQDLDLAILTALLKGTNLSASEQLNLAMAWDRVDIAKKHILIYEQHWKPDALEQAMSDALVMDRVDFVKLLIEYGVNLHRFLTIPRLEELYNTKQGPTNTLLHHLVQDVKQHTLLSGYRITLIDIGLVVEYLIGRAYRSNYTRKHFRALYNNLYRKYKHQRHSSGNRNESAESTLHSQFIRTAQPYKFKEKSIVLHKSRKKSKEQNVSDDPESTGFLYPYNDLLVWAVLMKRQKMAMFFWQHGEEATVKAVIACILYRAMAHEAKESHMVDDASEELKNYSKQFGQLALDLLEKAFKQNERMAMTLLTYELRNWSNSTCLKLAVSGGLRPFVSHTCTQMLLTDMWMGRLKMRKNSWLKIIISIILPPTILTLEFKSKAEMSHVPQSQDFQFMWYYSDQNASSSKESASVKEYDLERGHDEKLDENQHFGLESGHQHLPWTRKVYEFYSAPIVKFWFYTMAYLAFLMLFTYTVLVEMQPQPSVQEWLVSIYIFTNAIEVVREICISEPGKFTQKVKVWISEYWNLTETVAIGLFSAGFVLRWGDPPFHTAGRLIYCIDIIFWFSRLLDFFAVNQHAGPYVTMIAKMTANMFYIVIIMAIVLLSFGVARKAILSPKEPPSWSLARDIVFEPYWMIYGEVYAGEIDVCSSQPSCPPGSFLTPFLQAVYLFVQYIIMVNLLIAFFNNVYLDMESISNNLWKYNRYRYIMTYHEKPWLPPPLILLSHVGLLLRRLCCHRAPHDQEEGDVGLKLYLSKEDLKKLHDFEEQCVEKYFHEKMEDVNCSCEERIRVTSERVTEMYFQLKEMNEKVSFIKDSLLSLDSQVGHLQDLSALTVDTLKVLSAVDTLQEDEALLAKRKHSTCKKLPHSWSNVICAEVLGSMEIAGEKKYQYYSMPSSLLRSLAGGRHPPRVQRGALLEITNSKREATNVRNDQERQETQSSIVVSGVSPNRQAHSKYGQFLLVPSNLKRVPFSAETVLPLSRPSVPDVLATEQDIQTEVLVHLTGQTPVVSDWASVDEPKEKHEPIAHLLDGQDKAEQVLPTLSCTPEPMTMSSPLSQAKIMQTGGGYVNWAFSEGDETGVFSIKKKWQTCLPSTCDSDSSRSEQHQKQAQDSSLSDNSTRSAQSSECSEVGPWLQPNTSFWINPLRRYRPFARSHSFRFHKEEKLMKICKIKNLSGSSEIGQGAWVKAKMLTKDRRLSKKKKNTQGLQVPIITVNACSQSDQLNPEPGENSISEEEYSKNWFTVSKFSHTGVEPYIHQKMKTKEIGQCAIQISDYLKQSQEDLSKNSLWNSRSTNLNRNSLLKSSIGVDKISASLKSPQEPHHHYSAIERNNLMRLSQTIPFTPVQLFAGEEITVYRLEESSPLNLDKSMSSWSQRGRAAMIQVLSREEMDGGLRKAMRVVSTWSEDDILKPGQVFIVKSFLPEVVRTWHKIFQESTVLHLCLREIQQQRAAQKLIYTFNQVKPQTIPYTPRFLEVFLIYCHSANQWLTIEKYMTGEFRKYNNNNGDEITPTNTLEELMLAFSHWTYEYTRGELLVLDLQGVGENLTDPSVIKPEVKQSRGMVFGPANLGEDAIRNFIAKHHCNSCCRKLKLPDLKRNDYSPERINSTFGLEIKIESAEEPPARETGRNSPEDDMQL

Cc1cccc(-c2nc(Nc3ccncc3)c3ccccc3n2)n1 [NK215]
KINOMEscan NEK10 [1]: 0
KINOMEscan FGFR2 [2]: 7
KINOMEscan TRPM6 [3]: 0
KINOMEscan MAPKAPK2 [4]: 0
KINOMEscan OSXR1 [5]: 0
KINOMEscan HUNK [6]: 0
KINOMEscan AURKC [7]: 0
KINOMEscan CSNK2A2 [8]: 0
